Values quoted from earlier work as cited in patent US12233205B2, “Thermal modulation of an inhalable medicament” (priority 2014, dated 2025).
Where two headings read alike, the source gives them in different places.

| Molecule | bioavailability (administered PO) | also measured |
| --- | --- | --- |
| Nc1nc(NC2CC2)c2ncn([C@H]3C=C[C@@H](CO)C3)c2n1 [Abacavir] | around 83% | bioavailability (administered IV): 61-89% |
| Nc1nc2c(ncn2COCCO)c(=O)[nH]1 [Acyclovir] | 10-20% | – |
| NC12CC3CC(CC(C3)C1)C2 [Amantadine] | around 86% | – |
| CC(=O)Oc1ccccc1C(=O)O [Aspirin] | 61-80% | – |
| CN1CCCC(n2nc(Cc3ccc(Cl)cc3)c3ccccc3c2=O)CC1 (stereo not shown) [Azelastine] | – | bioavailability (administered as a nasal spray): around 40% |
| CC[C@H]1OC(=O)[C@H](C)[C@@H](O[C@H]2C[C@@](C)(OC)[C@@H](O)[C@H](C)O2)[C@H](C)[C@@H](O[C@@H]2O[C@H](C)C[C@H](N(C)C)[C@H]2O)[C@](C)(O)C[C@@H](C)CN(C)[C@H](C)[C@@H](O)[C@]1(C)O [Azithromycin] | around 38% | – |
| Cc1nnc(SCC2=C(C(=O)O)N3C(=O)[C@@H](NC(=O)Cn4cnnn4)[C@H]3SC2)s1 [Cefazolin] | – | bioavailability (administered IV): around 78% |
| CO[C@@]1(NC(=O)Cc2cccs2)C(=O)N2C(C(=O)O)=C(COC(N)=O)CS[C@@H]21 [Cefoxitin] | – | bioavailability (administered PR): 7-17% |
| [H]/N=C(\N/C(=N/[H])NCCCCCCNC(=N)NC(=N)Nc1ccc(Cl)cc1)Nc1ccc(Cl)cc1 [Chlorhexidine] | around 4% | – |
| CC[C@H]1OC(=O)[C@H](C)[C@@H](O[C@H]2C[C@@](C)(OC)[C@@H](O)[C@H](C)O2)[C@H](C)[C@@H](O[C@@H]2O[C@H](C)C[C@H](N(C)C)[C@H]2O)[C@](C)(OC)C[C@@H](C)C(=O)[C@H](C)[C@@H](O)[C@]1(C)O [Clarithromycin] | around 55% | – |
| CNCC[C@H](Oc1cccc2ccccc12)c1cccs1 [Duloxetine] | – | bioavailability (in vivo, po): 30-80% |
| C[C@@H](O)[C@H]1C(=O)N2C(C(=O)O)=C(S[C@@H]3CN[C@H](C(=O)Nc4cccc(C(=O)O)c4)C3)[C@H](C)[C@H]12 [Ertapenem] | – | bioavailability (administered IV): around 90% |
| Nc1nc(O)c2ncn(COC(CO)CO)c2n1 [Ganciclovir] | around 5% | – |
| CC(C)Cc1ccc(C(C)C(=O)O)cc1 (stereo not shown) [Ibuprofen] | 58-98% | – |
| NNC(=O)c1ccncc1 [Isoniazid] | around 90% | – |
| C[C@H]1COc2c(N3CCN(C)CC3)c(F)cc3c(=O)c(C(=O)O)cn1c23 [Levofloxacin] | around 99% | – |
| CCOC(=O)C1(c2ccccc2)CCN(C)CC1 [Meperidine] | – | bioavailability (in vivo, im): around 57% |
| Cc1ncc2n1-c1ccc(Cl)cc1C(c1ccccc1F)=NC2 [Midazolam] | – | bioavailability (in vivo, po): around 36% |

| Molecule | bioavailability (administered PO) | also measured |
| --- | --- | --- |
| CN(C)c1ccc(O)c2c1C[C@H]1C[C@H]3[C@H](N(C)C)C(O)=C(C(N)=O)C(=O)[C@@]3(O)C(O)=C1C2=O [Minocycline] | around 90% | – |
| C[C@@H]1C[C@H]2[C@@H]3CCC4=CC(=O)C=C[C@]4(C)[C@@]3(Cl)[C@@H](O)C[C@]2(C)[C@@]1(O)C(=O)CCl [Mometasone] | – | bioavailability (in vivo, inhaled or intranasal): around 1% |
| CCOc1ccc2ccccc2c1C(=O)N[C@@H]1C(=O)N2[C@@H]1SC(C)(C)[C@@H]2C(=O)O [Nafcillin] | around 50% | – |
| CN(C)C(=O)Oc1cccc([N+](C)(C)C)c1 [Neostigmine] | 1-2% | – |
| Cc1ccnc2c1NC(=O)c1cccnc1N2C1CC1 [Nevirapine] | 80-94% | – |
| CCOC(=O)C1=C[C@@H](OC(CC)CC)[C@H](NC(C)=O)[C@@H](N)C1 [Oseltamivir] | around 75% | – |
| CNC[C@H](O)c1cccc(O)c1 [Phenylephrine] | around 38% | – |
| Cc1nnc(C(=O)NC(C)(C)c2nc(C(=O)NCc3ccc(F)cc3)c(O)c(=O)n2C)o1 [Raltegravir] | 20-43% | – |
| NC(=O)c1ncn([C@@H]2O[C@H](CO)[C@@H](O)[C@H]2O)n1 [Ribavirin] | around 64% | – |
| CO[C@H]1/C=C/O[C@@]2(C)Oc3c(C)c(O)c4c(O)c(c(/C=N/N5CCN(C)CC5)c(O)c4c3C2=O)NC(=O)/C(C)=C\C=C\[C@H](C)[C@H](O)[C@@H](C)[C@@H](O)[C@@H](C)[C@H](OC(C)=O)[C@@H]1C [Rifampin] | 90-95% | – |
| CNS(=O)(=O)Cc1ccc2[nH]cc(CCN(C)C)c2c1 [Sumatriptan] | – | bioavailability (administered as a nasal spray): around 25% |
| NC[C@H]1O[C@H](O[C@H]2[C@H](O)[C@@H](O[C@H]3O[C@H](CO)[C@@H](O)[C@H](N)[C@H]3O)[C@H](N)C[C@@H]2N)[C@H](N)C[C@@H]1O [Tobramycin] | – | bioavailability (administered as an inhalable): 1-16.6% |
| COc1cccc(C2(O)CCCCC2CN(C)C)c1 (stereo not shown) [Tramadol] | 75-95% | – |
| CN[C@H](CC(C)C)C(=O)N[C@H]1C(=O)N[C@@H](CC(N)=O)C(=O)N[C@H]2C(=O)N[C@H]3C(=O)N[C@H](C(=O)N[C@H](C(=O)O)c4cc(O)cc(O)c4-c4cc3ccc4O)[C@H](O)c3ccc(c(Cl)c3)Oc3cc2cc(c3O[C@@H]2O[C@H](CO)[C@@H](O)[C@H](O)[C@H]2O[C@H]2C[C@](C)(N)[C@H](O)[C@H](C)O2)Oc2ccc(cc2Cl)[C@H]1O [Vancomycin] | negligible | – |
| CC(=O)N[C@H]1[C@H]([C@H](O)[C@H](O)CO)OC(C(=O)O)=C[C@@H]1N=C(N)N [Zanamivir] | – | bioavailability (route not stated): 4-17% |
| Gentamicin | negligible | bioavailability (administered IV): around 100% |
| Penicillin G, V | 30-80% | – |
